Measurements: patent US20260174724A1, “COMPOSITION FOR PREVENTING AND/OR IMPROVING BRAIN DYSFUNCTION” (THE INSTITUTE OF BIOACTIVE PEPTIDES, priority 2024, published 2026)

Assays:
[1] = Bioavailability experiment: DHM concentration in plasma after gavage, LC-MS/MS; format: in vivo; conditions: male SD rats, DHM 100 mg/kg
Description: Experimental subject grouping: 24 male SD rats, weighing between 200-220 g, were randomly divided into four groups.
• Group A (control group): DHM was administered alone at a dose of 100 mg/kg. • Group B: DHM (100 mg/kg) was co-administered with L-theanine (10 mg/kg). • Group C: DHM (100 mg/kg) was co-administered with taurine (10 mg/kg). • Group D: DHM (100 mg/kg), L-theanine (10 mg/kg), and taurine (10 mg/kg) were co-administered.
The drug was mixed with 3 mL of 0.5% CMC-Na solution and administered by gavage.
At 0.1, 0.5, 1, 1.5, 2, 2.5, 3, 4, 6, 8, and 12 h after administration, 200 μL of blood samples were collected through the tail vein and placed in heparinized EP tubes.
The blood samples were centrifuged at 5000 rpm for 15 min at 4° C., and plasma was collected and stored at −20° C.
Before analysis, 30 μL of plasma sample was taken, 30 μL of internal standard (rutin) solution and 140 μL of 1% formic acid-acetonitrile solution were added, vortex oscillated for 1 min, centrifuged at 12000 rpm for 5 min, and 150 μL of supernatant was taken for LC-MS/MS analysis. Analysis purpose:
The concentration of DHM in plasma was determined at different time points to evaluate the effect of the composition on the bioavailability of DHM.

[2] = simulated gi fluid, 4 h, 1 mg/mL
Description: • Solutions A-D and A1-D1 were prepared according to the following components and concentrations, with a volume of 10 mL each. The mixed solution was placed in a water bath at 37° C., and the content of the remaining DHM was determined by HPLC at different time intervals. • Solution A: SIF+DHM (1 mg/mL); • Solution B: SIF+DHM (1 mg/mL)+taurine (0.3 mg/mL) • Solution C: SIF+DHM (1 mg/mL)+L-theanine (0.4 mg/mL); • Solution D: SIF+DHM (1 mg/mL)+taurine (0.1 mg/mL)+L-theanine (0.1 mg/mL) • Solution A1: SIF+DHM (1 mg/mL)+Fe^3+ (50 μmol/L); • Solution B1: SIF+DHM (1 mg/mL)+taurine (0.3 mg/mL)+Fe^3+ (50 μmol/L); • Solution C1: SIF+DHM (1 mg/mL)+L-theanine (0.4 mg/mL)+Fe^3+ (50 μmol/L); • Solution D1: SIF+DHM (1 mg/mL)+taurine (0.1 mg/mL)+L-theanine (0.1 mg/mL)+Fe^3+ (50 μmol/L).

[3] = tested on: intracerebral hemorrhage (ICH) model of C57BL/6N mice; experiment: Cerebral hematoma experiment: collagenase-induced ICH model, hematoma volume by ImageJ; format: in vivo; conditions: Day 1 after modeling; gavage 7 days before collagenase; FIG. 3
Source text: This experiment aims to evaluate the effect of different compositions on the hematoma volume in the intracerebral hemorrhage (ICH) model of C57BL/6N mice. A total of 72 male C57BL/6N mice, aged 8-10 weeks, were randomly divided into 6 groups and treated with gavage for 7 days. Subsequently, except for the sham operation group (CON), the remaining groups were induced the ICH model by collagenase method. […]
On the 1st and 3rd day after modeling, 6 mice were randomly selected from each group for decapitation and brain sampling. The brain tissue was cut into slices on ice, and the hematoma volume was calculated using ImageJ software.

**Q.** Which results are given for `O=C1c2c(O)cc(O)cc2O[C@H](c2cc(O)c(O)c(O)c2)[C@H]1O` [DHM, dihydromyricetin]?
**A.** CL [1]: 8.62 ± 1.04 L/min/kg; AUC(0-inf) ([1]; rat, po): 194 ng·h/mL; AUC(0-t) ([1]; rat, po): 172 ng·h/mL; Cmax ([1]; rat, po): 118 ± 13.7 ng/mL; Tmax ([1]; rat, po): 49.8 ± 67.2 min; half-life ([1]; rat, po): 115 ± 40.2 min; remaining amount of DHM [2]: below 50%

**Q.** Which “hematoma volume compared with the MOD group” value [3] does the source give for `O=C1c2c(O)cc(O)cc2O[C@H](c2cc(O)c(O)c(O)c2)[C@H]1O` [G1 group, dihydromyricetin] here?
**A.** decreased
